Laboratory results published in US20220073536A1 (Rigel Pharmaceuticals, Inc., priority 2003, published 2022).
Structures can show the parent of a compound that is named as a salt.

How the values were obtained:
[1] = test system: cultured human mast cells (CHMC); experiment: CHMC low cell density IgE activation: tryptase assay; assay type: cell-based; details: IgE activation
How it was run: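 Anti-IgE-driven degranulation of cultured human mast cells at low density, 1000–1500 cells/well, was induced over 30 min at 37 °C. It was scored by supernatant tryptase activity on a fluorogenic substrate.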

[2] = test system: cultured human mast cells (CHMC); experiment: CHMC low cell density ionomycin activation: tryptase assay; assay type: cell-based; details: read-out: LD Tryptase, CHMC, Iono, 3 pt
[3] = low cell density, 3 pt, read-out: LD Tryptase, CHMC, IgE, 3 pt
[4] = low cell density CHMC, tryptase release, 3 point, read-out: LD Tryptase, CHMC, IgE, 3 pt
[5] = low cell density CHMC, tryptase, 3 pt, read-out: LD Tryptase, CHMC, IgE, 3 pt
[6] = low cell density CHMC, tryptase, 8 pt, read-out: LD Tryptase, CHMC, IgE, 8 pt
[7] = low cell density, 8 pt, read-out: LD Tryptase, CHMC, IgE, 8 pt

IC50 [1, 5] [µM] | IC50 [1, 6] [µM] | IC50 [1, 7] [µM] | Molecule | further results
< 10 | < 10 | – | 5-Fluoro-N4- (4-hydroxy-3,4-dihydro-2H-1-benzopyran-6-yl)-N2-[4- (oxazol-5-yl)phenyl]-2,4-pyrimidinediamine [Compound 1290] | IC50 ([2]; low cell density CHMC, tryptase, 3 pt): > 10 µM
– | < 10 | – | N2- (3,5-Dichloro-4-hydroxyphenyl)-5-fluoro-N4- (4-[N-[methoxycarbonylmethylene]aminocarbonyl]phenyl)-2,4-pyrimidinediamine [Compound 1329] | –
> 10 | > 10 | – | N2- (4-Aminocarbonylphenyl)-5-fluoro-N4- (4-[N-[methoxycarbonylmethylene]aminocarbonyl]phenyl)-2,4-pyrimidinediamine [Compound 1333] | –
– | < 10 | – | N2-[3,5-Bis (hydroxymethylene)phenyl]-N4- (3,4-dichlorophenyl)-5-fluoro-2,4-pyrimidinediamine [Compound 346] | –
– | < 10 | – | N2-[3,5-Bis (hydroxymethylene)phenyl]-N4- (3,4-ethylenedioxyphenyl)-5-fluoro-2,4-pyrimidinediamine [Compound 342] | –
– | < 10 | – | N2-[3,5-Bis (hydroxymethylene)phenyl]-N4- (3-chloro-4-methoxyphenyl)-5-fluoro-2,4-pyrimidinediamine [Compound 345] | –
< 10 | – | – | N4- (3,4-Dichlorophenyl)-5-fluoro-N2- (4-[N-[methoxycarbonylmethylene]aminocarbonyl]phenyl)-N4-methyl-2,4-pyrimidinediamine [Compound 1348] | –
< 10 | – | – | N4- (3,4-Ethylenedioxyphenyl)-5-fluoro-N2-[3,4-(tetrafluoroethylenedioxy)phenyl]-2,4-pyrimidinediamine [Compound 363] | –
– | < 10 | – | N4- (5-Amino-1,2,4-triazol-3-yl)-5-fluoro-N2-[3- (N-methylamino)carbonylmethyleneoxyphenyl]-2,4-pyrimidinediamine [Compound 1251] | –
< 10 | < 10 | – | N4- (Aminocarbonylphenyl)-5-fluoro-N2- (4-[N-[methoxycarbonylmethylene]aminocarbonyl]phenyl)-2,4-pyrimidinediamine [Compound 1338] | –
< 10 | < 10 | – | N4- (Cyclopentyl)-5-fluoro-N2- (4-[N-[methoxycarbonylmethylene]aminocarbonyl]phenyl)-2,4-pyrimidinediamine [Compound 1351] | –
– | – | < 10 | N4-[3,4- (Difluoromethylenedioxy)phenyl]-N2- (3,5-dimethylphenyl)-5-fluoro-2,4-pyrimidinediamine [Compound 563] | IC50 [1, 3]: < 10 µM

The next lines start with the molecule.

Molecule | IC50 [1, 5] [µM] | IC50 [1, 6] [µM] | IC50 [1, 7] [µM] | further results
2-Chloro-N4- (3,5-dichloro-4-methoxyphenyl-5-fluoro-N4-methyl-4-pyrimidineamine [Compound 491] | – | – | – | IC50 [1, 3]: > 10 µM; IC50 ([2]; low cell density, 3 pt): > 10 µM
2-Chloro-N4-[3-chloro-4- (N-methylamino)carbonylmethyleneoxyphenyl]-5-fluoro-N4-methyl-4-pyrimidineamine [Compound 661] | – | – | – | IC50 [1, 4]: > 10 µM; IC50 ([2]; low cell density CHMC, tryptase release, 3 point): > 10 µM
CNC(=O)COc1cccc(Nc2ncc(F)c(Nc3ccc4c(n3)NC(=O)C(C)(C)O4)n2)c1 [Compound 992, N4-(2,2-Dimethyl-3-oxo-4H-5-pyrid[1,4]oxazin-6-yl)-5-fluoro-N2-[3-(N-methylamino)carbonylmethyleneoxyphenyl]-2,4-pyrimidinediamine (+)-Camphorsulfonic Acid Salt] | – | – | – | IC50 ([2]; low cell density, 3 pt): > 10 µM
N2- (2-Aminocarbonylphenyl)-N4- (2,2-dimethyl-3-oxo-4H-5-pyrid[1,4]oxazin-6-yl)-5-fluoro-2,4-pyrimidinediamine [Compound 1316] | < 10 | > 10 | – | –
N2- (3-Chloro-4-hydroxy-5-methylphenyl)-N4-[3,4-(difluoromethylenedioxy)phenyl]-5-fluoro-2,4-pyrimidinediamine [Compound 567] | – | – | – | IC50 ([1]; low cell density CHMC, tryptase release, 8 point, read-out: LD Tryptase, CHMC, IgE, 8 pt): < 10 µM
N2- (4-Aminocarbonylphenyl)-N4- (2,2-dimethyl-3-oxo-4H-5-pyrid[1,4]oxazin-6-yl)-5-fluoro-2,4-pyrimidinediamine [Compound 1315] | < 10 | – | – | –
N4- (2,2-Dimethyl-3-oxo-4H-5-pyrid[1,4]oxazin-6-yl)-5-fluoro-N2- (3-methoxycarbonylppyrid-2yl)-2,4-pyrimidinediamine [Compound 1314] | < 10 | – | – | –
N4- (2,2-Dimethyl-3-oxo-4H-5-pyrid[1,4]oxazin-6-yl)-5-fluoro-N2- (4-methoxycarbonylphenyl)-2,4-pyrimidinediamine [Compound 1313] | < 10 | – | – | –
N4- (2,2-Dimethyl-3-oxo-4H-5-pyrid[1,4]oxazin-6-yl)-5-fluoro-[1-(2-hydroxymethyl)-2-trifluoromethylbenzimidazol-5-yl]-2,4-pyrimidinediamine [Compound 924] | – | – | < 10 | –
N4- (2,2-Dimethyl-3-oxo-4H-5-pyrid[1,4]oxazin-6-yl)-N2- (1-methyl-2-trifluoromethylbenzimidazol-5-yl)-2,4-pyrimidinediamine [Compound 915] | – | – | < 10 | –
N4- (2,2-Dimethyl-3-oxo-4H-N4-oxo-5-pyrido[1,4]oxazin-6-yl)-5-fluoro-N2- (3,4,5-trimethoxyphenyl)-2,4-pyrimidinediamine [Compound 1340] | < 10 | < 10 | – | –
N4- (2,2-Dimethyl-3-oxo-4H-benz[1,4]oxazin-6-yl)-5-fluoro-N2-{1-methyl-2-[ (methylsulfonyl)methyl]benzimidazol-5-yl}-2,4-pyrimidinediamine [Compound 967] | – | – | < 10 | IC50 [1, 3]: < 10 µM
N4- (2,2-Dimethyl-3-oxo-4H-benz[1,4]oxazin-6-yl)-5-fluoro-[1-(2-hydroxymethyl)-2-trifluoromethylbenzimidazol-5-yl]-2,4-pyrimidinediamine [Compound 922] | – | – | < 10 | –
N4- (3,4-Dichlorophenyl)-5-fluoro-N2-[2- (4-morpholinomethyl)-1H-benzimidazol-5-yl]-2,4-pyrimidinediamine [Compound 959] | – | – | < 10 | –
N4- (3,4-Dichlorophenyl)-5-fluoro-[1- (2-hydroxymethyl)-2-trifluoromethylbenzimidazol-5-yl]-2,4-pyrimidinediamine [Compound 920] | – | – | < 10 | IC50 [1, 3]: < 10 µM
N4- (3-Chloro-4-methoxyphenyl)-5-fluoro-[1- (2-hydroxymethyl)-2-trifluoromethylbenzimidazol-5-yl]-2,4-pyrimidinediamine [Compound 921] | – | – | < 10 | IC50 [1, 3]: < 10 µM
N4-[3,4- (Difluoromethylenedioxy)phenyl]-5-fluoro-N2- (3,4,5-trimethoxyphenyl)-2,4-pyrimidinediamine [Compound 561] | – | – | < 10 | –
N4-[3,4- (Difluoromethylenedioxy)phenyl]-5-fluoro-N2-[2- (N-methylamino)carbonylindol-7-yl]-2,4-pyrimidinediamine [Compound 570] | – | – | – | IC50 [1, 4]: < 10 µM
N4-[3,4- (Difluoromethylenedioxy)phenyl]-N2- (3,5-dimethoxyphenyl)-5-fluoro-2,4-pyrimidinediamine [Compound 562] | – | – | < 10 | IC50 [1, 3]: < 10 µM
N4-[benzoxathiazin-3 (4H)-one-6-yl]2-chloro-5-fluoro-4-pyrimidineamine [Compound 319] | – | – | – | IC50 ([1]; low cell density CHMC, tryptase release, 3 pt, read-out: LD Tryptase, CHMC, IgE, 3 pt): < 10 µM
